# In US6734196B2, “Substituted pyridine or piperidine compounds” (Les Laboratoires Servier, priority 1999, dated 2004):
row,melting point,Structure (SMILES)
1,214 to 216 °C,COc1ccc(C(=O)Cc2cccc[n+]2C)cc1.[I-]
2,197 to 199 °C,C[n+]1c(CC(=O)c2ccccc2)cccc1CC(=O)c1ccccc1.[I-]
3,208 to 210 °C,COc1ccc(C(=O)Cc2cccc(CC(=O)c3ccc(F)cc3)[n+]2C)cc1.O=S(=O)([O-])C(F)(F)F
4,192 to 193 °C,Cc1ccc(C(=O)CC2CCCC(CC(=O)c3ccccc3)N2C)cc1.I (centres unmarked)
5,205 to 206 °C,Cc1ccc(C(=O)Cc2cccc(CC(=O)c3ccccc3)[n+]2C)cc1.[I-]
6,226 to 227 °C,C[n+]1c(CC(=O)c2ccc(Cl)cc2)cccc1CC(=O)c1ccc(Br)cc1.[I-]
7,199 to 201 °C,C[n+]1c(CC(=O)c2ccccc2)cccc1CC(=O)c1ccc(Cl)cc1.O=S(=O)([O-])C(F)(F)F
8,203 to 205 °C,COc1ccc(C(=O)Cc2cccc(CC(=O)c3ccccc3)[n+]2C)cc1.[I-]
9,193 to 195 °C,COc1ccc(C(=O)Cc2cccc(CC(=O)c3ccccc3)[n+]2C)cc1.O=S(=O)([O-])C(F)(F)F
10,182 to 184 °C,CN1CCCCC1CC(=O)c1ccc(Br)cc1.I (centres unmarked)
11,134 to 136 °C,CN1CCCCC1CC(=O)c1cccc(Br)c1.I (centres unmarked)
12,200 to 202 °C,C[n+]1ccccc1C=C(c1ccccc1)N1CCCC1.[I-]
13,160 to 162 °C,CN1CCCCC1C1CCCCC1=O.I (centres unmarked)
14,213 to 215 °C,C[n+]1c(CC(=O)c2ccccc2)cccc1CC(=O)c1ccc(Cl)cc1.[I-]
15,204 to 205 °C,C[n+]1ccccc1CC(=O)c1ccccc1Br.[I-]
16,212 to 214 °C,C[n+]1ccccc1CC(=O)c1ccc(Cl)cc1.[I-]

row,melting point,Structure (SMILES)
1,214 to 216 °C,C[n+]1c(C=C(c2ccccc2)N2CCOCC2)cccc1N1CCOCC1.[I-]
2,185 to 187 °C,C[n+]1ccccc1CC(=O)c1ccc(Br)cc1.F[P-](F)(F)(F)(F)F
3,219 to 220 °C,COc1ccc(C(=O)Cc2cccc(CC(=O)c3ccc(F)cc3)[n+]2C)cc1.[I-]
4,222 to 224 °C,C[n+]1ccccc1CC(=O)c1ccc(Br)cc1.[I-]
5,163.5 to 164 °C,CN1CCCCC1CC(=O)c1ccccc1Br.I (centres unmarked)
6,200 to 202 °C,CN1C(CC(=O)c2ccc(Cl)cc2)CCCC1CC(=O)c1ccc(Br)cc1.I (centres unmarked)
7,217 to 218 °C,C[n+]1ccccc1CC(=O)c1cccc(Br)c1.[I-]
8,220 to 222 °C,C[n+]1c(CC(=O)c2ccccc2)cccc1CC(=O)c1ccc(F)cc1.[I-]
9,226 to 228 °C,C[n+]1c(CC(=O)c2ccc(Cl)cc2)cccc1CC(=O)c1ccc(Br)cc1.O=S(=O)([O-])C(F)(F)F
10,151 to 153 °C,C[n+]1ccccc1C1CCCCC1=O.[I-] (centres unmarked)
11,168 to 170 °C,COc1ccc(C(=O)Cc2cccc[n+]2C)cc1.F[P-](F)(F)(F)(F)F
12,152 to 154 °C,CN1C(CC(=O)c2ccccc2)CCCC1CC(=O)c1ccc(Cl)cc1.I (centres unmarked)
13,152 to 154 °C,C[n+]1ccccc1CC(=O)c1ccc(Cl)cc1.F[P-](F)(F)(F)(F)F
14,201 to 203 °C,COc1ccc(C(=O)CC2CCCCN2C)cc1.I (centres unmarked)
15,218 to 220 °C,C[n+]1c(CC(=O)c2ccccc2)cccc1CC(=O)c1ccc(Br)cc1.[I-]
16,152 to 154 °C,CN1C(CC(=O)c2ccccc2)CCCC1CC(=O)c1ccc(F)cc1.I (centres unmarked)
